The conditions of series [1]: continuous intravenous central infusion (CIVI), patients with CML; cited from earlier work.
For series [2] the following is noted: doses twenty times lower than that for Taxol; cited from earlier work.
In series [3] the test system is chronic myeloid leukaemias that have become resistant to alpha-interferon. The conditions noted are these: patients suffering from chronic myeloid leukaemias resistant to alpha-interferon; cited from earlier work.
Series [4] can be described thus: Stability of cephalotaxine in acidic solution. The series is classed as physicochemical. Conditions: several days in solution at pH 1-4 at 20° C. (personal observation). As for the experimental part: This alkaloid is relatively insensitive to basic media. On the other hand, several authors describe a certain level of sensitivity to acids and to quaternization of the nitrogen with methyl iodide, leading to a racemization by simultaneous inversion of the 3 asymmetric centres and of the nitrogen [D. J. Abraham, R. D. Rosensten and E. L. McGandy, Tetrahedron Letters, 4085 (1969)]. However, a period of several days in solution at pH 1-4 at 20° C. leaves this structure intact (personal observation).

Take `COC(=O)C[C@](O)(CCC(C)(C)O)C(=O)O[C@@H]1C(OC)=C[C@]23CCCN2CCc2cc4c(cc2[C@H]13)OCO4` [HA, harringtonine]: the extra-hematologic toxicity entry in series [1] is on record as “very mild”.

Turning to `COC(=O)C[C@](O)(CCCC(C)(C)O)C(=O)OC1C(OC)=C[C@]23CCCN2CCc2cc4c(cc2[C@H]13)OCO4` (stereo partly drawn) [HHT, cephalotaxine, 4-methyl (2R)-2-hydroxy-2-(4-hydroxy-4-methylpentyl)butanedioate (ester)], the “daily doses at and above which active” value in series [2] is given as ≥ 2.5 mg/m^2 of body area per 24 hours. In addition, the “reinduction of full haematological remissions” value in series [3] is on record as 70%. Further, the extra-hematologic toxicity entry in series [1] is listed as “very mild”.

Consider `COC1=C[C@]23CCCN2CCc2cc4c(cc2[C@@H]3C1O)OCO4` (single isomer, unassigned; (-)) [cephalotaxine, (−)-cephalotaxine], for which the “structure after a period in acidic solution” value in series [4] is reported as “intact”.

Values taken from USRE45128E1, “Cephalotaxane derivatives and their processes of preparation and purification” (IVAX International GmbH, priority 1998, dated 2014).
